These results are taken from patent publication US9593113B2, “Imide and acylurea derivatives as modulators of the glucocorticoid receptor” (BRISTOL-MYERS SQUIBB COMPANY, priority 2013, dated 2017).

Each structure is given as a SMILES string. Where two headings read alike, the source gives them in different places.

In assay [1] the target is human full-length glucocorticoid receptor (Homo sapiens (Human), UniProt P04150). Description: Glucocorticoid Receptor Binding Assay (II), fluorescence polarization competitor kit. As to conditions: read-out: GR (Ki, nM) (measured in GR binding Assay II). As to the method:
In order to measure the binding of compounds on the glucocorticoid receptor a commercially available kit was used (Glucocorticoid receptor competitor assay kit, PanVera Co., Madison, Wis., P2816). Briefly, a cell lysate containing recombinantly expressed human full-length glucocorticoid receptor was mixed with a fluorescently labeled glucocorticoid (1 nM Fluormone GS1) in the presence or absence of test compound. After one hour at room temperature, the fluorescence polarization (FP) of the samples were measured.
(Polarisation of emitted light reports the rotation of a fluorescent probe.)

Assay [2] concerns AP-1 induced transcriptional activity. Description: Cellular transrepressional assay (AP-1 luciferase reporter, PMA-activated A549 cell). The format is cell-based. As to conditions: A549 cell, 10 ng/ml PMA, 7 hours; for EC50: read-out: AP-1 (EC50, nM) (measured in cellular transrepression assay). As to the method:
To measure the ability of test molecules to inhibit AP-1 induced transcriptional activity we utilized an A549 cell which was stably transfected with a plasmid containing 7×AP-1 DNA binding sites (pAP-1-Luc plasmid, Stratagene Co., La Jolla, Calif.) followed by the gene for luciferase. Cells were activated with 10 ng/ml of phorbol myristic acid (PMA) plus or minus test molecules for 7 hours. After 7 hours a luciferase reagent was added to measure luciferase enzymatic activity in the cell. After a 10 minute incubation of luciferase reagent with cells, luminescence was measured in a TOPCOUNT® luminescence counter. Repression of AP-1 activity was calculated as the percentage decrease in the signal induced by PMA alone. Test molecules were analyzed in the concentration range from 0.1 nM to 40 μM. EC50s were determined by using standard curve fitting methods such as Excel fit (Microsoft Co.). An EC50 is the test molecule concentration at which there is a 50% repression of the maximal inhibition of transcription, i.e., a 50% reduction of AP-1 activity.
For orientation: Reporter assays use an easily measured gene product as a stand-in for the process of interest.

Sequence of human full-length glucocorticoid receptor (P04150 whole entry): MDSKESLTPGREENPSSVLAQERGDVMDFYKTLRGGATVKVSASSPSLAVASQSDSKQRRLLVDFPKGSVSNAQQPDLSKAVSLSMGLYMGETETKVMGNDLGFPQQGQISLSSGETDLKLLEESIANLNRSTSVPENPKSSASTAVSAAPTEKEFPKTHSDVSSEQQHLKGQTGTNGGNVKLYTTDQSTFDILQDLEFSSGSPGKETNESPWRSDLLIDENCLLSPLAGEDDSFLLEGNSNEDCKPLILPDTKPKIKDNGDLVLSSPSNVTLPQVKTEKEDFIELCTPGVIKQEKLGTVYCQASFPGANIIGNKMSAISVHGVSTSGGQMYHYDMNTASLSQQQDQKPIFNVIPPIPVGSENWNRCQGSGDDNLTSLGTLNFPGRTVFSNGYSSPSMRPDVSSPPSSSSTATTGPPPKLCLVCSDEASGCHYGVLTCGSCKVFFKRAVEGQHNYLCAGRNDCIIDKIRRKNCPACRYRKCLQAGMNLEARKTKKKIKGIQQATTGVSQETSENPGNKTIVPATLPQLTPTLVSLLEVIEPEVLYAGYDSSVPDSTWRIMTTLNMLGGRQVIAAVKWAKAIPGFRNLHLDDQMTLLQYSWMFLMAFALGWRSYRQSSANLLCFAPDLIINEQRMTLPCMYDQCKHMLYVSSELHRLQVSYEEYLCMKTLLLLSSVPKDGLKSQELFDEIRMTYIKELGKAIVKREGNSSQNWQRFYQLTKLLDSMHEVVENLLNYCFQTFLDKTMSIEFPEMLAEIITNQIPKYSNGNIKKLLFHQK

As to `CCC(=O)NC(=O)C(C)(C)[C@@H]1c2ccc(Cl)nc2Oc2c(F)cccc21` [Example 1], in assay [1], the Ki (usually a dissociation constant, usually derived from enzyme kinetics or from competition with a known ligand) worked out at 42.7 nM. For the same compound, in assay [2], the “AP-1 Max % inhibition (measured in cellular transrepression assay)” value (“AP-1 Max % inhibition” below) turned out to be 17.32%. Moreover, in assay [2] (Homo sapiens), the EC50 (commonly the concentration that produces a half-maximal response) is 5000 nM.
In the case of `CC(=O)NC(=O)C(C)(C)[C@@H]1c2ccc(-c3ccc(C(=O)N4CCOCC4)cc3)nc2Oc2c(F)cccc21` [Example 2], in assay [2], the “AP-1 Max % inhibition” value is 67.48%. Further, the EC50 in assay [2] (Homo sapiens) amounted to 4.97 nM.
On to `CC(=O)NC(=O)C(C)(C)[C@@H]1c2ccc(-c3ccc(C(=O)N(C)C)cc3)nc2Oc2c(F)cccc21` [Example 3], for which the “AP-1 Max % inhibition” value in assay [2] turned out to be 79.66%. For the same compound, the EC50 in assay [2] (Homo sapiens) stood at 267 nM.
For `CC(=O)NC(=O)C(C)(C)[C@H]1c2ccccc2Oc2nc(-c3ccc(C(=O)N4CCOCC4)cc3)ccc21` [Example 4], in that order: 67.93% and 6.65 nM.
For `CCC(=O)NC(=O)C(C)(C)[C@@H]1c2ccc(-c3ccc(C(=O)N4CCOCC4)cc3)nc2Oc2c(F)cccc21` [Example 5], in that order: 32.83% and 180 nM.
Regarding `CC(=O)NC(=O)C(C)(C)[C@@H]1c2ccc(-c3ccc(C(=O)N4CCCC4)cc3)nc2Oc2c(F)cccc21` [Example 8], the Ki in assay [1] was found to be 3.59 nM. In assay [2], the “AP-1 Max % inhibition” value was 64.35% and the EC50 turned out to be 5.97 nM.
On to `CC(C)(C(=O)NC(=O)N1CCOCC1)[C@@H]1c2ccc(-c3ccc(C(=O)N4CCOCC4)cc3)nc2Oc2c(F)cccc21` [Example 10], for which the “AP-1 Max % inhibition” value in assay [2] is 66.12%. Further, the EC50 in assay [2] (Homo sapiens) was 623 nM.
With `CNC(=O)NC(=O)C(C)(C)[C@@H]1c2ccc(-c3ccc(C(=O)N4CCCC4)cc3)nc2Oc2c(F)cccc21` [Example 11], the Ki in assay [1] came to 4.44 nM. Besides, in assay [2], the “AP-1 Max % inhibition” value was determined as 46.34% and the EC50 amounted to 29.6 nM.
Take `CCS(=O)(=O)c1ccc(-c2ccc3c(n2)Oc2c(F)cccc2[C@@H]3C(C)(C)C(=O)NC(=O)NC)cc1` [Example 12]: the Ki in assay [1] was found to be 5.04 nM. Also, in assay [2], the “AP-1 Max % inhibition” value is listed as 36.42% and the half-maximal effective concentration (EC50) worked out at 85.7 nM.
For the compound `CNC(=O)NC(=O)C(C)(C)[C@@H]1c2ccc(-c3ccc(S(C)(=O)=O)cc3)nc2Oc2c(F)cccc21` [Example 13], the inhibition constant Ki in assay [1] came out at 13.6 nM. Besides, in assay [2], the “AP-1 Max % inhibition” value was found to be 31.60% and the EC50 worked out at 483 nM.
Take `CNC(=O)NC(=O)C(C)(C)[C@@H]1c2ccc(Cl)nc2Oc2c(F)cccc21` [Example 14]: the “AP-1 Max % inhibition” value in assay [2] came out at 54.92%. In addition, in assay [2] (Homo sapiens), the EC50 came out at 337 nM.
Consider `CNC(=O)NC(=O)C(C)(C)[C@@H]1c2ccc(-c3ccc(C(C)(C)O)cc3)nc2Oc2c(F)cccc21` [Example 15], for which the “AP-1 Max % inhibition” value in assay [2] is listed as 61.15%. For the same compound, in assay [2] (Homo sapiens), the EC50 was 47.1 nM.
Consider `CNC(=O)NC(=O)C(C)(C)[C@@H]1c2ccc(-c3ccc(OC(C)C)cc3)nc2Oc2c(F)cccc21` [Example 16], for which the inhibitory constant (Ki) in assay [1] was found to be 1.6 nM. For the same compound, in assay [2], the “AP-1 Max % inhibition” value worked out at 49.58% and the EC50 came to 35.1 nM.
On to `CNC(=O)NC(=O)C(C)(C)[C@@H]1c2ccc(-c3ccc(OC(C)C)nc3)nc2Oc2c(F)cccc21` [Example 17], for which the Ki in assay [1] came out at 9.68 nM. For the same compound, in assay [2], the “AP-1 Max % inhibition” value amounted to 37.10% and the EC50 is 2500 nM.
For `CNC(=O)NC(=O)C(C)(C)[C@@H]1c2ccc(-c3cnc(N4CCN(C)CC4)nc3)nc2Oc2c(F)cccc21` [Example 18], in that order: 239 nM, 21.96% and 5000 nM.
As to `CC(C)NC(=O)NC(=O)C(C)(C)[C@@H]1c2ccc(-c3ccc(C(=O)N4CCOCC4)cc3)nc2Oc2c(F)cccc21` [Example 19], the “AP-1 Max % inhibition” value in assay [2] is on record as 25.94%. Also, in assay [2] (Homo sapiens), the EC50 stood at 199 nM.
For the compound `CC(C)(C(=O)NC(=O)NC1CCCC1)[C@@H]1c2ccc(-c3ccc(C(=O)N4CCOCC4)cc3)nc2Oc2c(F)cccc21` [Example 20], in assay [2], the “AP-1 Max % inhibition” value worked out at 29.26% and the EC50 was determined as 135 nM.
For `CC(C)(C(=O)NC(=O)Nc1ccccc1)[C@@H]1c2ccc(-c3ccc(C(=O)N4CCOCC4)cc3)nc2Oc2c(F)cccc21` [Example 21], in that order: 39.92% and 21.7 nM.
For `CCNC(=O)NC(=O)C(C)(C)[C@@H]1c2ccc(-c3ccc(C(=O)N4CCOCC4)cc3)nc2Oc2c(F)cccc21` [Example 22], in that order: 44.77% and 8.21 nM.
As to `CNC(=O)NC(=O)C(C)(C)[C@@H]1c2ccc(-c3ccc(S(=O)(=O)C(C)C)cc3)nc2Oc2c(F)cccc21` [Example 25], the Ki in assay [1] amounted to 5.26 nM. Further, in assay [2], the “AP-1 Max % inhibition” value is 25.41% and the EC50 was 347 nM.
As for `COC(=O)NC(=O)C(C)(C)[C@@H]1c2ccc(-c3ccc(C(=O)OC)cc3)nc2Oc2c(F)cccc21` [Example 26], the “AP-1 Max % inhibition” value in assay [2] was 6.98%. Further, in assay [2] (Homo sapiens), the EC50 worked out at 5000 nM.
In the case of `CNC(=O)NC(=O)C(C)(C)[C@@H]1c2ccc(-c3ccc(N4CCOCC4)nc3)nc2Oc2c(F)cccc21` [Example 27], the Ki in assay [1] is 10.9 nM. The “AP-1 Max % inhibition” value in assay [2] came out at 16.38%. The EC50 in assay [2] (Homo sapiens) was found to be 5000 nM.
As to `CC(C)(C(=O)NC(N)=O)[C@H]1c2ccccc2Oc2nc(-c3ccc(C(=O)N4CCOCC4)cc3)ccc21` [Example 28], in assay [2], the “AP-1 Max % inhibition” value is recorded as 68.66%. The EC50 in assay [2] (Homo sapiens) stood at 7.63 nM.
As for `COc1ccc(CNC(=O)NC(=O)C(C)(C)[C@@H]2c3ccc(-c4ccc(C(C)(C)O)cc4)nc3Oc3c(F)cccc32)cc1` [Example 29], the Ki in assay [1] is 3.33 nM. Further, in assay [2], the “AP-1 Max % inhibition” value is reported as 51.82%. The EC50 in assay [2] (Homo sapiens) was determined as 646 nM.
As to `CC(C)(C(=O)NC(N)=O)[C@@H]1c2ccc(-c3ccc(C(=O)N4CCCC4)cc3)nc2Oc2c(F)cccc21` [Example 30], in assay [1], the Ki turned out to be 0.72 nM. In assay [2], the “AP-1 Max % inhibition” value is reported as 63.94% and the EC50 was 1.59 nM.
Consider `CC(C)(C(=O)NC(N)=O)[C@H]1c2ccccc2Oc2nc(-c3ccc(C(=O)N4CCOCC4)c(F)c3)ccc21` [Example 44], for which, in assay [2], the “AP-1 Max % inhibition” value came out at 69.43% and the concentration for a half-maximal effect (EC50) amounted to 13.9 nM.
Take `CC(C)(C(=O)NC(N)=O)[C@H]1c2ccccc2Oc2nc(-c3ccc(C(=O)N4CCOCC4)nc3)ccc21` [Example 55]: in assay [2], the “AP-1 Max % inhibition” value is reported as 60.59% and the EC50 was found to be 116 nM.
In the case of `CC(C)(C(=O)NC(N)=O)[C@@H]1c2ccc(-c3ccc(C(=O)N4CCOCC4)c(F)c3)nc2Oc2c(F)cccc21` [Example 56], in assay [2], the “AP-1 Max % inhibition” value was found to be 72.50% and the EC50 is 6.39 nM.
As to `CC(C)(O)c1ccc(-c2ccc3c(n2)Oc2c(F)cccc2[C@@H]3C(C)(C)C(=O)NC(N)=O)cc1` [Example 69], the “AP-1 Max % inhibition” value in assay [2] is 67.09%. Moreover, the EC50 in assay [2] (Homo sapiens) was 2.03 nM.
Turning to `COc1ccc2c(c1)Oc1ccccc1[C@@H]2C(C)(C)C(=O)NC(N)=O` [Example 74], the “AP-1 Max % inhibition” value in assay [2] is reported as 7.70%. The EC50 in assay [2] (Homo sapiens) is 5000 nM.
For `CC(C)(C(=O)NC(=O)NCCO)[C@@H]1c2ccc(-c3ccc(C(=O)N4CCOCC4)cc3)nc2Oc2c(F)cccc21` [Example 77], in that order: 55.34% and 786 nM.
For the compound `CC(C)(O)CNC(=O)NC(=O)C(C)(C)[C@@H]1c2ccc(-c3ccc(C(=O)N4CCOCC4)cc3)nc2Oc2c(F)cccc21` [Example 78], the “AP-1 Max % inhibition” value in assay [2] was 46.32%. Moreover, the EC50 in assay [2] (Homo sapiens) turned out to be 340 nM.
For `CC(C)(O)CNC(=O)NC(=O)C(C)(C)[C@@H]1c2ccc(-c3ccc(C(C)(C)O)cc3)nc2Oc2c(F)cccc21` [Example 79], in that order: 36.12% and 789 nM.
For the compound `CC(C)(O)c1ccc(-c2ccc3c(n2)Oc2c(F)cccc2[C@@H]3C(C)(C)C(=O)NC(=O)NCCO)cc1` [Example 80], the “AP-1 Max % inhibition” value in assay [2] turned out to be 44.42%. The EC50 in assay [2] (Homo sapiens) was 84.6 nM.
For `CC(C)S(=O)(=O)c1ccc(-c2ccc3c(n2)Oc2ccccc2[C@@H]3C(C)(C)C(=O)NC(N)=O)cc1` [Example 82], in that order: 60.06% and 6.69 nM.
Turning to `CC(C)(C(=O)NC(N)=O)[C@@H]1c2ccc(-c3ccc(C(=O)N4CCC4)cc3)nc2Oc2c(F)cccc21` [Example 84], the “AP-1 Max % inhibition” value in assay [2] stood at 67.75%. Besides, in assay [2] (Homo sapiens), the concentration giving a half-maximal response (EC50) turned out to be 4.22 nM.
